Test results: patent US10688200B2, “Urea-based prostate specific membrane antigen (PSMA) inhibitors for imaging and therapy” (Five Eleven Pharma Inc., priority 2015, dated 2020)

How the values were obtained:
[1] = Biodistribution of radiotracers in normal mice; type: in vivo, mouse; conditions: normal male mice
Outline: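 Male CD-1 mice received 35 μCi [^68Ga] radiotracer (0.2 nmole ligand) by tail vein. Four mice per time point sacrificed at 2, 30, 60 and 120 min p.i.; organs and blood weighed and gamma counted. %ID/g calculated against a standard dilution of the dose, decay-corrected.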

[2] = system: LNCaP tumor bearing nude mice; test: Biodistribution of [68Ga]labeled ligand in PSMA positive tumor bearing nude mice; type: in vivo, mouse; conditions: 1 h post-injection, i.v., n = 3
Method: In a dish contained 5×10^6 cells of LNCaP in 50% Matrigel (Becton Dickinson, Heidelberg, Germany) were subcutaneously inoculated into the left shoulder of male 5- to 6-week-old CD-1 nu/nu mice (Charles River Laboratories). The tumors were allowed to grow for 8 weeks until approximately 0.5 cm^3 in size.
The ^68Ga-radiolabeled compounds were injected via tail vein (25 μCi per mouse; 0.1-0.2 nmol). At 1 h after injection, the animals were sacrificed. Organs of interest were dissected and weighed. The radioactivity was measured with a gamma counter and calculated as % ID/g.

[3] = system: LNCaP (left shoulder) and PC-3 (right shoulder) tumor bearing nude mouse; test: Small animal PET imaging with [68Ga]1a and [68Ga]4a; type: in vivo; conditions: 60 to 75 min after i.v. injection
Method: Male athymic mice (CD-1 nude, 5-6 weeks old) were obtained from Charles River, and were allowed to acclimatize at the vivarium for 1 week prior to implanting tumors. Mice were provided with food and water ad libitum. LNCaP tumors were induced on the left shoulder by sub-cutaneous (s.c.) injection of 5.0×10^6 cells in a 200 μL cell suspension of a 1:1 v/v mixture of media with reconstituted basement membrane (BD Matrigel™, Collaborative Biomedical Products Inc., Bedford, Mass.). Similarly, PC-3 tumors were induced on the right shoulder by s.c. injection of 2.0×10^6 cells. Palpable LNCaP tumors developed after a period of 4-5 weeks.
Dynamic small animal PET (APET) imaging studies of LNCaP (left shoulder) and PC-3 (right shoulder) tumor bearing nude mouse were performed with [^68Ga]1a and [^68Ga]4a. PET imaging studies were performed on a Phillips Mosaic small animal PET scanner, which has an imaging field of view of 11.5 cm. Under isoflurane anesthesia (1-2%, 1 L/min oxygen), the tumor-bearing nude mouse was injected with 0.5 mCi activity by an intravenous injection into the lateral tail vein. Data acquisition began at 30 min after the injection. Dynamic scans were conducted over a period of 1 h (5 min/frame; image voxel size 0.5 mm^3). Mouse was visually monitored for breathing, and a heating pad was used to maintain body temperature throughout the entire procedure. Images were reconstructed and a region of interest (ROI) analysis was performed using AMIDE software (http://amide.sourceforge.net/).
Representative animal PET images of LNCaP xenograft mice between 60 to 75 min after i.v. injection of [^68Ga]1a, and [^68Ga]4a are shown in FIGS. 3A-3F. […] FIGS. 3A-3F show sagittal, transaxial and coronal sections of APET images of nude mouse with LNCaP tumor at left shoulder and PC-3 tumor at right shoulder between 60 to 75 min post i.v. injection of [^68Ga]1a (FIGS. 3A-3C) and [^68Ga]4a (FIG. 3D-3F).

[4] = system: PSMA-expressing LNCaP cells; test: Cell binding and internalization; type: cell-based, human; conditions: 37° C.
Method: The cellular uptake and internalization kinetics of the [^68Ga]1a, [^68Ga]5a and [^68Ga]5b were determined using PSMA-expressing LNCaP cells. Furthermore, to be able to discriminate between total cellular activity (sum of membrane-associated and internalized activity) and internalized activity, all incubations were followed by a washing step with mild acid at 4° C. to remove specifically cell-surface bound radioligand by displacement.
LNCaP cells (in 6-well plates in triplicates) were incubated in RPMI-1640 medium with [^68Ga]1a, [^68Ga]5a or [^68Ga]5b for 0-2 h at 37° C. At the indicated time, the medium was removed and the cells were washed twice and then incubated with a mild acid buffer (50 mM glycine, 150 mM NaCl, pH 3.0) at 4° C. for 5 min. The supernatant (containing cell surface-bound radioactivity) was pooled and the cell pellet (containing internalized radioactivity) was collected with filter paper and then radioactivity in supernatant and cell pellet was counted on a gamma counter.
LNCaP cells were incubated with [^68Ga]1a, [^68Ga]5a and [^68Ga]5b for up to 2 h at 37° C. to determine whether the compound is internalized by endocytosis. The cells were then washed with a mild acid buffer to remove extracellularly bound compound.
Non specific binding (NSB) was evaluated by blocking with 20 μM PMPA. Specificity of cell uptake (SB) was calculated by subtracting the respective signals resulting from PMPA blocking. Values are expressed as % of applied radioactivity bound to 10^6 cells.

## O=C(O)CCc1ccc2c(c1)C[N+]13CC[N+]45CC(=O)[O][68Ga-3]14([O]C(=O)C3)([O]2)[O]c1ccc(CCC(=O)NCCCCCC(=O)NCCCC[C@H](NC(=O)N[C@@H](CCC(=O)O)C(=O)O)C(=O)O)cc1C5 (stereo partly shown) [[^68Ga]1a, reference compound]
[1]; 2 min
  Biodistribution: Blood: 7.75 ± 1.60 % dose/g
  Biodistribution: Bone: 1.77 ± 0.16 % dose/g
  Biodistribution: Brain: 0.25 ± 0.02 % dose/g
  Biodistribution: Heart: 3.32 ± 0.51 % dose/g
  Biodistribution: Kidney: 40.5 ± 7.81 % dose/g
  Biodistribution: Liver: 11.0 ± 0.99 % dose/g
  Biodistribution: Lung: 5.29 ± 0.82 % dose/g
  Biodistribution: Muscle: 1.68 ± 0.20 % dose/g
  Biodistribution: Pancreas: 1.91 ± 0.17 % dose/g
  Biodistribution: Skin: 2.42 ± 0.38 % dose/g
  Biodistribution: Spleen: 7.46 ± 0.84 % dose/g
[1]; 30 min
  Biodistribution: Blood: 0.54 ± 0.08 % dose/g
  Biodistribution: Bone: 0.24 ± 0.08 % dose/g
  Biodistribution: Brain: 0.03 ± 0.00 % dose/g
  Biodistribution: Heart: 0.27 ± 0.09 % dose/g
  Biodistribution: Kidney: 108 ± 23.7 % dose/g
  Biodistribution: Liver: 0.35 ± 0.03 % dose/g
  Biodistribution: Lung: 1.14 ± 0.17 % dose/g
  Biodistribution: Muscle: 0.32 ± 0.01 % dose/g
  Biodistribution: Pancreas: 0.76 ± 0.11 % dose/g
  Biodistribution: Skin: 0.95 ± 0.20 % dose/g
  Biodistribution: Spleen: 2.95 ± 0.36 % dose/g
[1]; 60 min
  Biodistribution: Blood: 0.33 ± 0.07 % dose/g
  Biodistribution: Bone: 0.23 ± 0.02 % dose/g
  Biodistribution: Brain: 0.02 ± 0.00 % dose/g
  Biodistribution: Heart: 0.34 ± 0.07 % dose/g
  Biodistribution: Kidney: 91.1 ± 11.6 % dose/g
  Biodistribution: Liver: 6.09 ± 0.86 % dose/g
  Biodistribution: Lung: 0.93 ± 0.14 % dose/g
  Biodistribution: Muscle: 0.19 ± 0.02 % dose/g
  Biodistribution: Pancreas: 0.59 ± 0.10 % dose/g
  Biodistribution: Skin: 0.44 ± 0.05 % dose/g
  Biodistribution: Spleen: 4.39 ± 0.42 % dose/g
[1]; 120 min
  Biodistribution: Blood: 0.12 ± 0.03 % dose/g
  Biodistribution: Bone: 0.21 ± 0.05 % dose/g
  Biodistribution: Brain: 0.01 ± 0.00 % dose/g
  Biodistribution: Heart: 0.23 ± 0.19 % dose/g
  Biodistribution: Kidney: 83.9 ± 13.6 % dose/g
  Biodistribution: Liver: 2.56 ± 0.80 % dose/g
  Biodistribution: Lung: 0.77 ± 0.17 % dose/g
  Biodistribution: Muscle: 0.12 ± 0.03 % dose/g
  Biodistribution: Pancreas: 0.64 ± 0.23 % dose/g
  Biodistribution: Skin: 0.31 ± 0.12 % dose/g
  Biodistribution: Spleen: 5.07 ± 2.68 % dose/g
[2]
  Organ distribution: Blood: 0.37 ± 0.07 % dose/g
  Organ distribution: Bone: 0.21 ± 0.05 % dose/g
  Organ distribution: Brain: 0.04 ± 0.01 % dose/g
  Organ distribution: Heart: 0.59 ± 0.14 % dose/g
  Organ distribution: Kidney: 176 ± 5.66 % dose/g
  Organ distribution: LNCaP tumor: 10.07 ± 3.32 % dose/g
  Organ distribution: Liver: 0.62 ± 0.24 % dose/g
  Organ distribution: Lung: 2.44 ± 1.03 % dose/g
  Organ distribution: Muscle: 0.58 ± 0.24 % dose/g
  Organ distribution: Pancreas: 1.38 ± 0.63 % dose/g
  Organ distribution: Skin: 1.14 ± 0.58 % dose/g
  Organ distribution: Spleen: 18.48 ± 3.02 % dose/g
[3]
  LNCaP tumor visualization in PET images, in words: clearly visualized
  PC-3 (PSMA negative) tumor uptake in PET images, in words: did not show any uptakes
[4]; 5 min
  Cell surface binding activity: 3.21 ± 0.74 % ID/10^6 cells
  Internalized activity: 0.49 ± 0.21 % ID/10^6 cells
[4]; 15 min
  Cell surface binding activity: 3.61 ± 0.47 % ID/10^6 cells
  Internalized activity: 2.51 ± 0.19 % ID/10^6 cells
[4]; 30 min
  Cell surface binding activity: 2.95 ± 0.36 % ID/10^6 cells
  Internalized activity: 4.30 ± 0.72 % ID/10^6 cells
[4]; 60 min
  Cell surface binding activity: 3.22 ± 0.81 % ID/10^6 cells
  Internalized activity: 7.43 ± 1.27 % ID/10^6 cells
[4]; 90 min
  Cell surface binding activity: 3.41 ± 0.17 % ID/10^6 cells
  Internalized activity: 8.34 ± 0.16 % ID/10^6 cells
[4]; 120 min
  Cell surface binding activity: 3.35 ± 0.04 % ID/10^6 cells
  Internalized activity: 8.82 ± 0.45 % ID/10^6 cells
